Test results as given in ChEMBL document CHEMBL1152675, “3,4-Dihydropyrimido(1,2-a)indol-10(2H)-ones as potent non-peptidic inhibitors of caspase-3” (Bioorg Med Chem, 2009).

Experiment: Chemical stability in 90% deionized water after 24 hrs by NMR spectroscopy
Type: physicochemical
Settings: read-out: Stability

remaining at 24 h [%] | SMILES
89 | O=C1C2=NCC3(CCCC3)CN2c2ccc(S(=O)(=O)N3CCC[C@H]3COc3ccccc3)cc21
87 | COC[C@@H]1CCCN1S(=O)(=O)c1ccc2c(c1)C(=O)C1=NCC3(CCCC3)CN12
72 | O=C1C2=NCC3(CCCCC3)CN2c2ccc(S(=O)(=O)N3CCC[C@H]3COc3ccccc3)cc21
69 | O=C1C2=NCC3(CCC3)CN2c2ccc(S(=O)(=O)N3CCC[C@H]3COc3ccccc3)cc21
74 | COC[C@@H]1CCCN1S(=O)(=O)c1ccc2c(c1)C(=O)C1=NCC3(CCC3)CN12
71 | COC[C@@H]1CCCN1S(=O)(=O)c1ccc2c(c1)C(=O)C1=NCC3(CCCCC3)CN12
